# Results reported in PMC6270921, “Study on the Cytotoxic Activity of Drimane Sesquiterpenes and Nordrimane Compounds against Cancer Cell Lines” (Molecules, 2014).
# Tests used:
# Type in all cases: cell-based, human
# MCF-7 cells [1] = experiment: Mitochondrial membrane permeability, rhodamine 123 flow cytometry; conditions: control treated cells assigned 100%
# Text: (§1) Mitochondria play a crucial role in the apoptotic cascade by serving as a convergent center of apoptotic signals originating from both the extrinsic and intrinsic pathways. Changes induced in the mitochondrial membrane potential (MMP) have been reported previously to represent a determinant in the execution of cell death. As polygodial has been described as an inhibitor of mitochondrial ATPase and also as nonionic surfactant. This effect may be determinant in cell death, we has analyzed the effect of compounds 1, 8 and 12 on the mitochondrial membrane potential using flow cytometry with rhodamine 123 stain [24]. […] Similar differences were observed after treatments with compounds 1 and 8 at 100 μM.
# (§2) Rhodamine 123, a cationic, voltage-sensitive probe that reversibly accumulates in mitochondria, was used to detect changes in transmembrane mitochondrial membrane potentials. Cells were labelled with 1 μM rhodamine 123 at 37 °C in cell medium for 60 min before terminating the experiment. Cells were detached from the plate, after washing with ice cold PBS, and the samples were analyzed by flow cytometry. Data are expressed in percentage of cells with rhodamine 123 [24].
# PC-3 cells [2] = experiment: as above; conditions: control treated cells assigned 100%
# Text: as §1, §2
# MCF-7 cells [3] = experiment: Morphological assessment of cell apoptosis, Hoechst 33342 staining; conditions: MCF-7, 24 h exposure, fluorescence microscope
# Experimental: (§3) Nuclear changes in PC-3, MCF-7 and CoN cells were observed under a fluorescence microscope (200×, Figure 4).
# (§4) Briefly, on 24-well chamber slides, 1 × 10^4 cells/mL were cultured and exposed to compounds for 24 h. The control group was also exposed to 1% ethanol. The cells were washed twice with phosphate buffer solution, fixed with 3.7% formaldehyde, and washed again with phosphate buffer solution. Following the addition of 1 μM Hoechst 33342 (Sigma-Aldrich, Santiago, Chile), they were reacted in a dark room at room temperature for 30 min. After washing, they were examined under an immunofluorescence microscope (IX 81 model inverted microscope, Olympus, Santiago, Chile).
# CoN cells = experiment: as above; conditions: 24 h exposure, fluorescence microscope
# Experimental: as §3, §4
# PC-3 cells [4] = experiment: as above; conditions: PC-3, 24 h exposure, fluorescence microscope
# Experimental: as §3, §4
smiles,measurement,setting,value
"CC1(C)CCC[C@]2(C)[C@@H](C=O)C(C=O)=CC[C@@H]12 [Compound 1, polygodial]",percentage of rhodamine 123 stained cells,"MCF-7 cells [1]; MCF-7, compound 50 µM",77.0% ± 6.5%
same,percentage of rhodamine 123 stained cells,"MCF-7 cells [1]; MCF-7, compound 50 µM, listed as Comp. 1",77.0 ± 6.5 %
same,percentage of rhodamine 123 stained cells,"MCF-7 cells [1]; MCF-7, compound 100 µM",19.4 ± 1.5 %
same,percentage of rhodamine 123 stained cells,"PC-3 cells [2]; PC-3, compound 50 µM",49.1% ± 6.6%
same,percentage of rhodamine 123 stained cells,"PC-3 cells [2]; PC-3, compound 50 µM, listed as Comp. 1",111.6 ± 8.9%
same,percentage of rhodamine 123 stained cells,"PC-3 cells [2]; PC-3, compound 100 µM",11.9 ± 2.4 %
same,nuclear changes after Hoechst 33342 staining,MCF-7 cells [3],chromatin condensation and karyopyknosis
same,nuclear changes after Hoechst 33342 staining,CoN cells,chromatin condensation and karyopyknosis
same,nuclear changes after Hoechst 33342 staining,PC-3 cells [4],chromatin condensation and karyopyknosis
